Laboratory results taken from patent US12240862B2, “Inhibitors of peptidylarginine deiminases” (Gilead Sciences, Inc., priority 2020, dated 2025).

Molecular target: T1, human PAD4 (Homo sapiens, UniProt Q9UM07)
T1 construct: human PAD4 (NM_012387), A2P663, was PCR amplified; His-SUMO (N, cleaved yes); made in house; host or cells: E. coli BL21(DE3)
Experiment: In vitro PAD4 BAEE biochemical assay
Details: human PAD4, BAEE substrate; 5 nM PAD4, 2 mM calcium chloride, 3 mM BAEE; geometric mean of multiple experiments
Outline: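 Ammonia generated from BAEE serves as the readout, measured by o-phthalaldehyde after EDTA termination. Final conditions: 5 nM human PAD4 (SUMO tag cleaved), 2 mM CaCl2, 3 mM BAEE, pH 7.6 MOPS buffer, 25 °C for 2 h following a 30-min compound preincubation.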

T1 sequence (Q9UM07 2-663): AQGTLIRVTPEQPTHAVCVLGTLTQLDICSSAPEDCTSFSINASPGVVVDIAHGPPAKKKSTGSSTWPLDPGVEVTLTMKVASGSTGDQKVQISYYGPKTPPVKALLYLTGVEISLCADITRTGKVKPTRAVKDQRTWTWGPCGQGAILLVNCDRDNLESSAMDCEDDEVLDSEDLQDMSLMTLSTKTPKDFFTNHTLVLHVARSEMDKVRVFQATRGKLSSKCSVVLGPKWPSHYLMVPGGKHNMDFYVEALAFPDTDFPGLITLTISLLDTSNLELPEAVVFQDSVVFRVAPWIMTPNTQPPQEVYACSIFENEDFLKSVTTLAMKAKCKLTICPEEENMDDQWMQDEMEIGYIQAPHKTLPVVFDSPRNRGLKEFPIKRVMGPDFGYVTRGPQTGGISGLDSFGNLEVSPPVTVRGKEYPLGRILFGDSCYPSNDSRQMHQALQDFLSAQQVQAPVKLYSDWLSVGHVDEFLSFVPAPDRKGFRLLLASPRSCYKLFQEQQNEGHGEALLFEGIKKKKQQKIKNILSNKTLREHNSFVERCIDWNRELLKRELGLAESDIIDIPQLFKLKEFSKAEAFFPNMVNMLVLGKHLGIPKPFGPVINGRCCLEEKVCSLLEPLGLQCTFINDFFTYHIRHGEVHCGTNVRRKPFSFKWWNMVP

SMILES | IC50 [nM]
CS(=O)(=O)N(c1ccc2cc(-c3nc4cc(C(=O)N5CC[C@@H](F)[C@@H](N)C5)ccn4c3C3CC3)n(CC3CC3)c2n1)C(F)F [Example 394, ~{N}-[2-[7-[(3~{S},4~{R})-3-amino-4-fluoropiperidine-1-carbonyl]-3-cyclopropylimidazo[1,2-a]pyridin-2-yl]-1-(cyclopropylmethyl)pyrrolo [2,3-b]pyridin-6-yl]-~{N}-(difluoromethyl) methanesulfonamide] | 1070
COc1cc(C(=O)N2[C@H]3CC[C@@H]2[C@H](N)C3)cc2nc(-c3cc4ccc([C@@H](C)NC(=O)C5CC5)nc4n3CC3CC3)c(C)n12 [Example 78, ~{N}-[(1~{R})-1-[2-[7-[(1~{R},2~{R},4~{S})-2-amino-7-azabicyclo[2.2.1]heptane-7-carbonyl]-5-methoxy-3-methylimidazo [1,2-a]pyridin-2-yl]-1-(cyclopropylmethyl)pyrrolo [2,3-b]pyridin-6-yl]ethyl] cyclopropanecarboxamide] | 41.4
COc1cc(C(=O)N2[C@H]3CC[C@@H]2[C@H](N)C3)cc2nc(-c3cc4ccc([C@@H](C)NC(=O)CC5(OC)CCC5)nc4n3CC3CC3)c(C)n12 [Example 32, ~{N}-[(1~{R})-1-[2-[7-[(1~{R},2~{R},4~{S})-2-amino-7-azabicyclo [2.2.1]heptane-7-carbonyl]-5-methoxy-3-methylimidazo[1,2-a]pyridin-2-yl]-1-(cyclopropylmethyl)pyrrolo[2,3-b]pyridin-6-yl]ethyl]-2-(1-methoxycyclobutyl) acetamide] | 83
COc1cc(C(=O)N2[C@H]3CC[C@@H]2[C@H](N)C3)cc2nc(-c3cc4ccc([C@@H](C)NC(=O)CC(C)(C)C(=O)O)nc4n3CC3CC3)c(C)n12 [Example 161, 4-[[(1~{R})-1-[2-[7-[(1~{R},2~{R},4~{S})-2-amino-7-azabicyclo[2.2.1]heptane-7-carbonyl]-5-methoxy-3-methylimidazo [1,2-a]pyridin-2-yl]-1-(cyclopropylmethyl)pyrrolo [2,3-b]pyridin-6-yl]ethyl]amino]-2,2-dimethyl-4-oxobutanoic acid] | 79.8
COc1cc(C(=O)N2[C@H]3CC[C@@H]2[C@H](N)C3)cc2nc(-c3cc4ccc([C@@H](C)N5CCOC5=O)nc4n3CC3CC3)c(C)n12 [Example 275, 3-((R)-1-(2-(7-((1R,2R,4S)-2-amino-7-azabicyclo[2.2.1]heptane-7-carbonyl)-5-methoxy-3-methylimidazo[1,2-a]pyridin-2-yl)-1-(cyclopropylmethyl)-1H-pyrrolo[2,3-b]pyridin-6-yl)ethyl)oxazolidin-2-one] | 14.1
CCC1CC2CN(C(=O)c3cc(OC)n4c(C)c(-c5cc6ccc(N(C(F)F)S(C)(=O)=O)nc6n5CC5CC5)nc4c3)C1C2N (stereo not shown) [Example 370] | 17100
COc1cc(C(=O)N2[C@H]3CC[C@@H]2[C@H](N)C3)cc2nc(-c3cc4ccc([C@@H](C)NC(=O)C(C)(C)O)nc4n3CC3CC3)c(C)n12 [Example 126, ~{N}-[(1~{R})-1-[2-[7-[(1~{R},2~{R},4~{S})-2-amino-7-azabicyclo[2.2.1]heptane-7-carbonyl]-5-methoxy-3-methylimidazo [1,2-a]pyridin-2-yl]-1-(cyclopropylmethyl)pyrrolo [2,3-b]pyridin-6-yl]ethyl]-2-hydroxy-2-methylpropanamide] | 45.9
COc1cc(C(=O)N2[C@H]3CC[C@@H]2[C@H](N)C3)cc2nc(-c3cc4ccc([C@@H](C)NC(=O)C5(C(F)(F)F)CCC5)nc4n3CC3CC3)c(C)n12 [Example 44, ~{N}-[(1~{R})-1-[2-[7-[(1~{R},2~{R},4~{S})-2-amino-7-azabicyclo[2.2.1]heptane-7-carbonyl]-5-methoxy-3-methylimidazo [1,2-a]pyridin-2-yl]-1-(cyclopropylmethyl)pyrrolo[2,3-b]pyridin-6-yl]ethyl]-1-(trifluoromethyl) cyclobutane-1-carboxamide] | 56.1
COc1cc(C(=O)N2[C@H]3CC[C@@H]2[C@H](N)C3)cc2nc(-c3cc4ccc([C@@H](C)NC(=O)Nc5c(C)cccc5C)nc4n3CC3CC3)c(C)n12 [Example 238, 1-[(1~{R})-1-[2-[7-[(1~{R},2~{R},4~{S})-2-amino-7-azabicyclo[2.2.1]heptane-7-carbonyl]-5-methoxy-3-methylimidazo [1,2-a]pyridin-2-yl]-1-(cyclopropylmethyl)pyrrolo [2,3-b]pyridin-6-yl]ethyl]-3-(2,6-dimethylphenyl)urea] | 145
COc1cc(C(=O)N2[C@H]3CC[C@@H]2[C@H](N)C3)cc2nc(-c3cc4ccc([C@@H](C)NC(=O)N5C[C@H]6OCC[C@H]65)nc4n3CC3CC3)c(C)n12 [Example 196, (1~{R},5~{R})-~{N}-[(1~{R})-1-[2-[7-[(1~{R},2~{R},4~{S})-2-amino-7-azabicyclo[2.2.1]heptane-7-carbonyl]-5-methoxy-3-methylimidazo [1,2-a]pyridin-2-yl]-1-(cyclopropylmethyl)pyrrolo [2,3-b]pyridin-6-yl]ethyl]-2-oxa-6-azabicyclo [3.2.0]heptane-6-carboxamide] | 29.3
COc1cc(C(=O)N2[C@H]3CC[C@@H]2[C@H](N)C3)cc2nc(-c3cc4ccc([C@@H](C)NC(=O)N5CC(OC(F)F)C5)nc4n3CC3CC3)c(C)n12 [Example 205, ~{N}-[(1~{R})-1-[2-[7-[(1~{R},2~{R},4~{S})-2-amino-7-azabicyclo[2.2.1]heptane-7-carbonyl]-5-methoxy-3-methylimidazo [1,2-a]pyridin-2-yl]-1-(cyclopropylmethyl)pyrrolo [2,3-b]pyridin-6-yl]ethyl]-3-(difluoromethoxy)azetidine-1-carboxamide] | 34.8
COc1cc(C(=O)N2CCC3CCNCC32)cc2nc(-c3cc4ccc(N(C(F)F)S(C)(=O)=O)nc4n3CC3CC3)c(C)n12 (stereo not shown) [Example 322, ~{N}-[2-[7-(2,3,3~{a}, 4,5,6,7,7~ {a}-octahydropyrrolo[2,3-c]pyridine-1-carbonyl)-5-methoxy-3-methylimidazo [1,2-a]pyridin-2-yl]-1-(cyclopropylmethyl)pyrrolo [2,3-b]pyridin-6-yl]-~{N}-(difluoromethyl) methanesulfonamide] | 258

Results, then the compound that gave them:

IC50 [nM] | SMILES
75.1 | CCN(c1ccc2cc(-c3nc4cc(C(=O)N5[C@H]6CC[C@@H]5[C@H](N)C6)cc(OC)n4c3C)n(CC3CC3)c2n1)S(C)(=O)=O [Example 475, ~{N}-[2-[7-[(1~{R},2~{R}, 4~{S})-2-amino-7-azabicyclo[2.2.1]heptane-7-carbonyl]-5-methoxy-3-methylimidazo[1,2-a]pyridin-2-yl]-1-(cyclopropylmethyl)pyrrolo [2,3-b]pyridin-6-yl]-~{N}-ethylmethanesulfonamide]
175 | COc1cc(C(=O)N2[C@H]3CC[C@@H]2[C@H](N)C3)cc2nc(-c3cc4ccc(C(C)(C)CC(=O)N5CC(F)(F)C5)nc4n3CC3CC3)c(C)n12 [Example 538, 3-[2-[7-[(1~{R},2~{R}, 4~{S})-2-amino-7-azabicyclo[2.2.1]heptane-7-carbonyl]-5-methoxy-3-methylimidazo[1,2-a]pyridin-2-yl]-1-(cyclopropylmethyl)pyrrolo [2,3-b]pyridin-6-yl]-1-(3,3-difluoroazetidin-1-yl)-3-methylbutan-1-one]
1910 | COc1cc(C(=O)N2CCC[C@@H](N)C2)cc2nc(-c3cc4ccc(Cl)nc4n3CC3CC3)c(C)n12 [Example 599, [(3~{R})-3-aminopiperidin-1-yl]-[2-[6-chloro-1-(cyclopropylmethyl)pyrrolo [2,3-b]pyridin-2-yl]-5-methoxy-3-methylimidazo[1,2-a]pyridin-7-yl]methanone]
1020 | Cc1c(-c2cc3ccc(N(C(F)F)S(C)(=O)=O)nc3n2CC2CC2)nc2cc(C(=O)N3CCC[C@@H](N)C3)cc(C3CC3)n12 [Example 428, ~{N}-[2-[7-[(3~{R})-3-aminopiperidine-1-carbonyl]-5-cyclopropyl-3-methylimidazo [1,2-a]pyridin-2-yl]-1-(cyclopropylmethyl)pyrrolo [2,3-b]pyridin-6-yl]-~{N}-(difluoromethyl) methanesulfonamide]
133 | COc1cc(C(=O)N2[C@H]3CC[C@@H]2[C@H](N)C3)cc2nc(-c3cc4ccc(N5[C@H](C)CCCS5(=O)=O)nc4n3CC3CC3)c(C)n12 [Example 463, [(1~{R},2~{R},4~{S})-2-amino-7-azabicyclo [2.2.1]heptan-7-yl]-[2-[1-(cyclopropylmethyl)-6-[(3~{R})-3-methyl-1,1-dioxothiazinan-2-yl]pyrrolo[2,3-b]pyridin-2-yl]-5-methoxy-3-methylimidazo [1,2-a]pyridin-7-yl] methanone]
130 | COc1cc(C(=O)N2[C@H]3CC[C@@H]2[C@H](N)C3)cc2nc(-c3cc4ccc(N5CCN(c6ccccc6)CCS5(=O)=O)nc4n3CC3CC3)c(C)n12 [Example 444, [(1~{R},2~{R},4~{S})-2-amino-7-azabicyclo [2.2.1]heptan-7-yl]-[2-[1-(cyclopropylmethyl)-6-(1,1-dioxo-5-phenyl-1,2,5-thiadiazepan-2-yl)pyrrolo [2,3-b]pyridin-2-yl]-5-methoxy-3-methylimidazo [1,2-a]pyridin-7-yl] methanone]
44.2 | COc1cc(C(=O)N2[C@H]3CC[C@@H]2[C@H](N)C3)cc2nc(-c3cc4ccc(N5CCCCS5(=O)=O)nc4n3CC3CC3)c(C)n12 [Example 474, [(1~{R},2~{R},4~{S})-2-amino-7-azabicyclo [2.2.1]heptan-7-yl]-[2-[1-(cyclopropylmethyl)-6-(1,1-dioxothiazinan-2-yl)pyrrolo [2,3-b]pyridin-2-yl]-5-methoxy-3-methylimidazo [1,2-a]pyridin-7-yl]methanone]
